Measured values as given in ChEMBL document CHEMBL1201862, “PubChem BioAssay data set” (2004).
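Cells were grown in 96-well plates and exposed to each compound for 48 hours at five concentrations; endpoints were interpolated linearly between bracketing concentrations, or set to the highest concentration if not reached. GI50 = concentration required for 50% inhibition of growth.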 Activity calls are given as the source filed them. Rule as the data show it: active = GI50 up to about 1.1 µM and inactive = higher.

Assays:
Experiment in all cases: inhibition of tumour cell growth, NCI panel, 48 h
786-0 = test system: 786-0
A498 = test system: A498
A549 = test system: A549
ACHN = test system: ACHN
BT-549 = test system: BT-549
CAKI-1 = test system: CAKI-1
CCRF-CEM = test system: CCRF-CEM
COLO 205 = test system: COLO 205
DU-145 = test system: DU-145
EKVX = test system: EKVX
HCC 2998 = test system: HCC 2998
HCT-116 = test system: HCT-116
HCT-15 = test system: HCT-15
HL-60 = test system: HL-60
HOP-62 = test system: HOP-62
HOP-92 = test system: HOP-92
HT-29 = test system: HT-29
Hs-578T = test system: Hs-578T
IGROV-1 = test system: IGROV-1
K562 = test system: K562
KM12 = test system: KM12
LOX IMVI = test system: LOX IMVI
M14 = test system: M14
MCF7 = test system: MCF7
MDA-MB-231 = test system: MDA-MB-231
MDA-MB-435 = test system: MDA-MB-435
MDA-N = test system: MDA-N
MOLT-4 = test system: MOLT-4
NCI-H226 = test system: NCI-H226
NCI-H23 = test system: NCI-H23
NCI-H460 = test system: NCI-H460
NCI-H522 = test system: NCI-H522
NCI/ADR-RES = test system: NCI/ADR-RES
OVCAR-3 = test system: OVCAR-3
OVCAR-4 = test system: OVCAR-4
OVCAR-5 = test system: OVCAR-5
OVCAR-8 = test system: OVCAR-8
PC-3 = test system: PC-3
RPMI-8226 = test system: RPMI-8226
RXF 393 = test system: RXF 393
SF-268 = test system: SF-268
SF-295 = test system: SF-295
SF-539 = test system: SF-539
SK-MEL-28 = test system: SK-MEL-28
SK-MEL-2 = test system: SK-MEL-2
SK-MEL-5 = test system: SK-MEL-5
SK-OV-3 = test system: SK-OV-3
SN12C = test system: SN12C
SNB-19 = test system: SNB-19
SNB-75 = test system: SNB-75
SR = test system: SR
SW-620 = test system: SW-620
T47D = test system: T47D
TK-10 = test system: TK-10
U-251 = test system: U-251
UACC-257 = test system: UACC-257
UACC-62 = test system: UACC-62
UO-31 = test system: UO-31
Malme-3M = test system: Malme-3M

N#Cc1ccc(-n2c3ccccc3c3ccc4c(c32)C(=O)C=CC4=O)cc1
GI50 (786-0): 1.56 µM (inactive)
GI50 (A498): 1.85 µM (inactive)
GI50 (A549): 16.9 µM (inactive)
GI50 (ACHN): 1.56 µM (inactive)
GI50 (BT-549): 12.2 µM (inactive)
GI50 (CAKI-1): 1.38 µM (inactive)
GI50 (CCRF-CEM): 0.409 µM (active)
GI50 (COLO 205): 2.79 µM (inactive)
GI50 (DU-145): 3.6 µM (inactive)
GI50 (EKVX): 1.91 µM (inactive)
GI50 (HCC 2998): 8.43 µM (inactive)
GI50 (HCT-116): 2.42 µM (inactive)
GI50 (HCT-15): 4.49 µM
GI50 (HL-60): 0.578 µM (active)
GI50 (HOP-62): 15.3 µM (inactive)
GI50 (HOP-92): 1.52 µM (inactive)
GI50 (HT-29): 1.66 µM (inactive)
GI50 (Hs-578T): 4.16 µM (inactive)
GI50 (IGROV-1): 5.25 µM (inactive)
GI50 (K562): 1.29 µM (inactive)
GI50 (KM12): 10.2 µM (inactive)
GI50 (LOX IMVI): 2.99 µM (inactive)
GI50 (M14): 2.68 µM (inactive)
GI50 (MCF7): 2.52 µM (inactive)
GI50 (MDA-MB-231): 2.51 µM (inactive)
GI50 (MDA-MB-435): 2.01 µM (inactive)
GI50 (MDA-N): 4.99 µM (inactive)
GI50 (MOLT-4): 0.348 µM (active)
GI50 (NCI-H226): 24.3 µM (inactive)
GI50 (NCI-H23): 6.89 µM (inactive)
GI50 (NCI-H460): 21.6 µM (inactive)
GI50 (NCI-H522): 0.11 µM (active)
GI50 (NCI/ADR-RES): 10.9 µM (inactive)
GI50 (OVCAR-3): 3.27 µM (inactive)
GI50 (OVCAR-4): 3.78 µM (inactive)
GI50 (OVCAR-5): 17.8 µM (inactive)
GI50 (OVCAR-8): 3.66 µM (inactive)
GI50 (PC-3): 3.06 µM (inactive)
GI50 (RPMI-8226): 3.72 µM (inactive)
GI50 (RXF 393): 2.39 µM (inactive)
GI50 (SF-268): 2.62 µM (inactive)
GI50 (SF-295): 14 µM (inactive)
GI50 (SF-539): 3.94 µM (inactive)
GI50 (SK-MEL-28): 2.88 µM (inactive)
GI50 (SK-MEL-2): 8.87 µM (inactive)
GI50 (SK-MEL-5): 5.02 µM (inactive)
GI50 (SK-OV-3): 13.8 µM (inactive)
GI50 (SN12C): 3.65 µM (inactive)
GI50 (SNB-19): 10.1 µM (inactive)
GI50 (SNB-75): 18.2 µM (inactive)
GI50 (SR): 1.46 µM (inactive)
GI50 (SW-620): 1.92 µM (inactive)
GI50 (T47D): 2.74 µM (inactive)
GI50 (TK-10): 3.4 µM (inactive)
GI50 (U-251): 4.56 µM (inactive)
GI50 (UACC-257): 4.67 µM (inactive)
GI50 (UACC-62): 6.25 µM (inactive)
GI50 (UO-31): 1.45 µM (inactive)

O=C(Cn1nc(Br)c(Br)c1Br)c1ccccc1
GI50 (786-0): 23.7 µM (inactive)
GI50 (A498): 35 µM (inactive)
GI50 (A549): 33.7 µM (inactive)
GI50 (ACHN): 27.3 µM (inactive)
GI50 (BT-549): 20.2 µM (inactive)
GI50 (CAKI-1): 26.7 µM (inactive)
GI50 (CCRF-CEM): 5.97 µM (inactive)
GI50 (COLO 205): 18.9 µM (inactive)
GI50 (DU-145): 38.5 µM (inactive)
GI50 (EKVX): 22.5 µM (inactive)
GI50 (HCC 2998): 36.6 µM (inactive)
GI50 (HCT-116): 18.1 µM (inactive)
GI50 (HCT-15): 31.6 µM
GI50 (HL-60): 10.9 µM (inactive)
GI50 (HOP-62): 37.2 µM (inactive)
GI50 (HOP-92): 20 µM (inactive)
GI50 (HT-29): 22.2 µM (inactive)
GI50 (Hs-578T): 44.1 µM (inactive)
GI50 (IGROV-1): 27.7 µM (inactive)
GI50 (K562): 10.8 µM (inactive)
GI50 (KM12): 33.4 µM (inactive)
GI50 (LOX IMVI): 16.4 µM (inactive)
GI50 (M14): 26.7 µM (inactive)
GI50 (MCF7): 36.2 µM (inactive)
GI50 (MDA-MB-231): 18.9 µM (inactive)
GI50 (MDA-MB-435): 31 µM (inactive)
GI50 (MDA-N): 32.9 µM (inactive)
GI50 (MOLT-4): 0.238 µM (active)
GI50 (Malme-3M): 22 µM (inactive)
GI50 (NCI-H226): 11.8 µM (inactive)
GI50 (NCI-H23): 24.8 µM (inactive)
GI50 (NCI-H460): 23.8 µM (inactive)
GI50 (NCI-H522): 26 µM (inactive)
GI50 (NCI/ADR-RES): 30.1 µM (inactive)
GI50 (OVCAR-3): 34.1 µM (inactive)
GI50 (OVCAR-4): 36.1 µM (inactive)
GI50 (OVCAR-5): 40.7 µM (inactive)
GI50 (OVCAR-8): 34.5 µM (inactive)
GI50 (PC-3): 32.7 µM (inactive)
GI50 (RXF 393): 13.6 µM (inactive)
GI50 (SF-268): 51.3 µM (inactive)
GI50 (SF-295): 29.1 µM (inactive)
GI50 (SF-539): 18.2 µM (inactive)
GI50 (SK-MEL-28): 37.2 µM (inactive)
GI50 (SK-MEL-2): 20.7 µM (inactive)
GI50 (SK-MEL-5): 18.1 µM (inactive)
GI50 (SK-OV-3): 32.5 µM (inactive)
GI50 (SN12C): 65.6 µM (inactive)
GI50 (SNB-19): 39.3 µM (inactive)
GI50 (SNB-75): 23.2 µM (inactive)
GI50 (SR): 0.152 µM (active)
GI50 (SW-620): 34 µM (inactive)
GI50 (T47D): 24.5 µM (inactive)
GI50 (TK-10): 13.7 µM (inactive)
GI50 (U-251): 34 µM (inactive)
GI50 (UACC-257): 20 µM (inactive)
GI50 (UACC-62): 20 µM (inactive)
GI50 (UO-31): 18.2 µM (inactive)

CC1(C)[C@H]2Cc3cc(-c4cc5c(cn4)[C@@H]4C[C@H]([C@@H]5[C@@H]5c6cc(-c7cc8c(cn7)[C@@H]7C[C@H](C8)C7(C)C)ncc6[C@@H]6C[C@H]5C6(C)C)C4(C)C)ncc3[C@@H]1C2
GI50 (786-0): > 100 µM (inactive)
GI50 (A498): > 100 µM (inactive)
GI50 (A549): > 100 µM (inactive)
GI50 (ACHN): > 100 µM (inactive)
GI50 (BT-549): > 100 µM (inactive)
GI50 (CAKI-1): > 100 µM (inactive)
GI50 (CCRF-CEM): > 100 µM (inactive)
GI50 (COLO 205): > 100 µM (inactive)
GI50 (DU-145): > 100 µM (inactive)
GI50 (EKVX): > 100 µM (inactive)
GI50 (HCC 2998): 76.7 µM (inactive)
GI50 (HCT-116): > 100 µM (inactive)
GI50 (HCT-15): > 100 µM
GI50 (HL-60): > 100 µM (inactive)
GI50 (HOP-62): > 100 µM (inactive)
GI50 (HOP-92): > 100 µM (inactive)
GI50 (HT-29): > 100 µM (inactive)
GI50 (Hs-578T): > 100 µM (inactive)
GI50 (IGROV-1): > 100 µM (inactive)
GI50 (K562): > 100 µM (inactive)
GI50 (KM12): > 100 µM (inactive)
GI50 (LOX IMVI): > 100 µM (inactive)
GI50 (M14): > 100 µM (inactive)
GI50 (MCF7): > 100 µM (inactive)
GI50 (MDA-MB-231): > 100 µM (inactive)
GI50 (MDA-MB-435): > 100 µM (inactive)
GI50 (MDA-N): > 100 µM (inactive)
GI50 (MOLT-4): > 100 µM (inactive)
GI50 (Malme-3M): > 100 µM (inactive)
GI50 (NCI-H226): > 100 µM (inactive)
GI50 (NCI-H23): > 100 µM (inactive)
GI50 (NCI-H460): > 100 µM (inactive)
GI50 (NCI-H522): > 100 µM (inactive)
GI50 (NCI/ADR-RES): > 100 µM (inactive)
GI50 (OVCAR-3): > 100 µM (inactive)
GI50 (OVCAR-5): > 100 µM (inactive)
GI50 (OVCAR-8): > 100 µM (inactive)
GI50 (PC-3): > 100 µM (inactive)
GI50 (RPMI-8226): > 100 µM (inactive)
GI50 (RXF 393): > 100 µM (inactive)
GI50 (SF-268): > 100 µM (inactive)
GI50 (SF-295): > 100 µM (inactive)
GI50 (SK-MEL-28): > 100 µM (inactive)
GI50 (SK-MEL-2): > 100 µM (inactive)
GI50 (SK-MEL-5): > 100 µM (inactive)
GI50 (SK-OV-3): > 100 µM (inactive)
GI50 (SN12C): > 100 µM (inactive)
GI50 (SNB-19): > 100 µM (inactive)
GI50 (SNB-75): > 100 µM (inactive)
GI50 (SR): > 100 µM (inactive)
GI50 (SW-620): > 100 µM (inactive)
GI50 (T47D): > 100 µM (inactive)
GI50 (U-251): > 100 µM (inactive)
GI50 (UACC-257): > 100 µM (inactive)
GI50 (UACC-62): > 100 µM (inactive)
GI50 (UO-31): > 100 µM (inactive)
